No end group written: not given here.
Assays:
S. aureus USA300 LAC [1] = experiment: Membrane depolarization (DiBAC4(3)); format: cell-based, Staphylococcus aureus; conditions: peptide 8 µM; similar trends at 16 and 32 µM; DiBAC4(3) fluorescence
Protocol: The experiment was conducted as described. In brief, an overnight culture of S. aureus USA300 LAC was subcultured in a fresh TSB medium and grown to the exponential phase. Cells were spun using centrifugation and washed twice with PBS, and resuspended in twice the volume of PBS containing 25 mM glucose and incubated at 37 °C for 15 min. For membrane depolarization measurements, 500 nM (final concentration) of the dye DiBAC4 (3) (bis-(1,3- dibutylbarbituric acid) trimethine oxonol) (AnaSpec, San Jose, CA, USA) was added and vortexed gently. Aliquots of 90 μL of the energized bacteria solution were loaded to the wells, and the plate was fed into a FLUOstar Omega microplate reader. Fluorescence was read for 20 min at excitation and emission wavelengths of 485 and 520 nm, respectively, to get dye normalization. Then 10 μL of diluted peptide solutions were added and gently mixed. Fluorescence readings were recorded for 40 min, where Triton X-100 (0.1%) was used as a positive control.

E. coli E423-17 = format: cell-based, Escherichia coli
Protocol: (§1) The antibiotic-resistant pathogens used in this study include the Gram-positive bacteria Enterococcus faecium V286-17 and Staphylococcus aureus USA300 LAC and the Gram-negative bacteria Klebsiella pneumoniae E406-17, Acinetobacter baumannii B28-16, Pseudomonas aeruginosa E411-17, and Escherichia coli E423-17. All bacteria were cultivated in tryptic soy broth (TSB) at 37 °C, 220 rpm.
(§2) The antibacterial activity of peptides was evaluated using a standard broth microdilution protocol with minor modifications. In brief, peptides were made at various concentrations, 10 μL per well in a 96-well polystyrene microplate. Logarithmic phase bacterial cultures (i.e., optical density (OD) at 600 nm ≈ 0.5) were diluted to 0.001 OD, and aliquots of 90 μL were added to each well. Untreated bacterial culture and medium were included as positive and negative controls, respectively. Plates were incubated at 37 °C overnight and read at 630 nm using a ChroMate Microplate Reader (Awareness Technology, Palm City, FL, USA). […] Our previously designed peptide 17BIPHE2 [32] was included as a positive control, and RI-10, a peptide without antibacterial activity in rich media, was utilized as a negative control.

E. faecium V284-17 = format: cell-based, Enterococcus faecium; conditions: V284-17
K. pneumoniae E406-17 = format: cell-based, Klebsiella pneumoniae; conditions: E406-17
Protocol: as §1, §2

A. baumannii B28-16 [2] = experiment: Membrane permeabilization (propidium iodide); format: cell-based, Acinetobacter baumannii; conditions: peptide 16 µM; propidium iodide fluorescence, 2 h, PBS, 37 °C
Protocol: (§3) Membrane permeabilization was evaluated as described. In brief, bacteria were inoculated and grown overnight. A second inoculation was made and let bacteria grow to the exponential phase. Bacteria were then spun, washed, and resuspended in the same volume of PBS. A series of peptide solutions (10×) was made via two-fold dilution in a 96-well plate (10 µL each). All wells were aliquoted with 2 µL of propidium iodide (20 µM), followed by adding 88 µL of S. aureus USA300 or A. baumannii B28-16 (OD600 ~0.11 in PBS). The plate was incubated at 37 °C with continuous shaking at 100 rpm in a FLUOstar Omega microplate reader (BMG Labtech Inc., Cary, NC, USA). Fluorescence was recorded every 5 min for 2 h with excitation and emission wavelengths of 485 and 620 nm. The data were analyzed by the vendor’s software using averaged values from duplicated experiments.

[3] = HPLC retention time (measure of peptide hydrophobicity); format: physicochemical; conditions: chromatographic, Waters C8 symmetry hydrophobic column, as described in ref 34; used as indicator of peptide hydrophobicity
Source text: In the membrane-bound LL-37 structure determined by 3D NMR spectroscopy, a hydrophobic gap exists (Figure 1A). The location of a hydrophilic S9 on the hydrophobic surface of LL-37 splits the long helix into two hydrophobic domains (gold sticks). The SK-24 peptide we identified here corresponds to the long hydrophobic domain [26]. The amino acid sequence of SK-24, along with LL-37 and its derived antimicrobial peptides, is depicted in Figure 1B. Peptide parameters, including net charge, hydrophobic content, Boman index, GRAVY, hydrophobicity, and hydrophobic moment of each peptide, were calculated using online tools, such as the APD [8] and HeliQuest (Table 1). Except for the shortest RI-10 (net charge +3), LL-37 and its other derived peptides have net charges +5 or +6, above the average net charge (+3.3) of natural antimicrobial peptides registered in the APD [8, 35, 36]. Overall, the hydrophobic percentages (Pho) of these peptides calculated in the APD are proportional to the hydrophobicity and hydrophobic moment calculated by HeliQuest in Table 1. Of note, LL-37 has the highest net charge (+6) and Boman index but the lowest Pho%, GRAVY, and hydrophobic moment.
All peptides were chemically synthesized and purified to >95% (Genemed Synthesis, San Antonio, TX, USA). The quality of each peptide was determined based on mass spectrometry (MS) and high-performance liquid chromatography (HPLC). Peptide stock solutions were freshly made by solubilizing in autoclaved distilled water, and their concentrations were quantitated using UV spectroscopy based on the absorbance difference at 215 and 225 nm as described. Peptide retention time was measured on a Waters C8 symmetry hydrophobic column as described. Other chemicals were purchased from Sigma (St. Louis, MO, USA) unless specified.

P. aeruginosa E411-17 = format: cell-based, Pseudomonas aeruginosa; conditions: E411-17
Protocol: as §1, §2

[4] = test system: S. aureus USA300 LAC preformed biofilms; experiment: Disruption of preformed biofilms (XTT); format: cell-based, Staphylococcus aureus; conditions: 24 h preformed biofilms of S. aureus USA300; XTT
Protocol: (§4) The antibiofilm activities of peptides against the preformed biofilms of A. baumannii B28-16 and S. aureus USA300 LAC were evaluated as follows. Bacteria in the logarithmic growth phase were adjusted to a cell density of 10^5 colony forming unit (CFU)/mL. Two hundred microliter cells were seeded into each well of the 96-well plates. The plates were incubated at 37 °C to allow for the formation of biofilm for 24, 48, and 72 h, respectively. The planktonic cells were then removed, followed by a wash. The biofilms were then treated with 20 µL of 10× two-fold diluted peptides and 180 µL of fresh TSB media for 24 h at 37 °C. Cultures treated with water without peptide served as the positive control, and media treated with water was used as the negative control. To quantify the antibiofilm activity of the peptides, the XTT [2, 3-bis (2-methyloxy-4-nitro-5-sulfophenyl)-2H-tertazolium-5-carboxanilide] assay staining method was used to quantitate the live cells. Absorbance was read at 450 nm using a ChroMate microliter plate reader. The percentage biofilm growth for the peptide was plotted by assuming 100% biofilm growth in untreated bacterial control wells. Data were represented as mean ± standard deviation (SD). The data are statistically significant at p < 0.05. Plots were generated using GraphPad Prism v7 (GraphPad Software, San Diego, CA, USA).

Human red blood cells = experiment: Hemolytic assay; format: cell-based; conditions: red cells of human, 1 h
Protocol: Human red blood cells (hRBCs, the UNMC Blood Bank) were washed three to five times with saline (Fisher Scientific, Waltham, MA, USA) at 800 g for 10 min each time, until the supernatant was clear. The supernatant was discarded, and hRBCs were suspended in saline at a final density of 2%. Ninety microliters of hRBC suspensions were added to each well of 96-well plates containing 10 µL of 10× serially diluted peptides. After incubation at 37 °C for 1 h, the plates were centrifuged at 1500 rpm for 5 min. About 80 µL of the supernatant was carefully pipetted to a new 96-well microplate and read at 545 nm to measure the amount of hemoglobin released. The positive control was 1% Triton X-100, and the negative control was saline. The percentage of hRBC lysis was calculated based on the hemoglobin released.

A. baumannii B28-16 [5] = format: cell-based, Acinetobacter baumannii
Protocol: as §1, §2

[6] = test system: A. baumannii B28-16 preformed biofilms; experiment: Disruption of preformed biofilms (XTT); format: cell-based, Acinetobacter baumannii
Protocol: as §4

S. aureus USA300 = format: cell-based, Staphylococcus aureus
Protocol: as §1, §2

S. aureus USA300 LAC [7] = experiment: Membrane permeabilization (propidium iodide); format: cell-based, Staphylococcus aureus; conditions: peptide 8 µM; propidium iodide fluorescence, 2 h, PBS, 37 °C
Protocol: as §3

[8] = test system: S. aureus USA300 LAC preformed biofilms; conditions: S. aureus USA300 LAC and other clinical strains (USA200, USA400, Mu50); cited from earlier work
Protocol: Here, we compared the antibiofilm activity of SK-24 with that of GF-17, GI-20, and 17BIPHE2 against the 24 h preformed biofilms of S. aureus USA300. […] Only SK-24 a ...

[9] = test system: clinical and antibiotic-resistant pathogens (panel of Table 3); format: cell-based; conditions: all pathogens of Table 3; peptide 32 µM
Protocol: as §1, §2

Row | Substance | Membrane depolarization ability (order, words) (S. aureus USA300 LAC [1]) | MIC (E. coli E423-17) [µM] | MIC (E. faecium V284-17) [µM] | MIC (K. pneumoniae E406-17) [µM] | Membrane permeation (A. baumannii B28-16 [2]) | tHPLC (HPLC retention time) [3] [min] | MIC (P. aeruginosa E411-17) [µM] | Antibiofilm effect on 24 h preformed biofilms [4] | HC50 (50% hemolytic concentration) (Human red blood cells) | MIC (A. baumannii B28-16 [5]) [µM] | Biofilm disruption ([6]; 72 h preformed biofilms, peptide 64 μM, highest concentration tested) | Disruption of 48 h biofilms ([6]; biofilms established for 48 h, 24 h treatment) | Reduction of 24 h biofilms ([6]; biofilms established in 24 h, 24 h treatment) | MIC (S. aureus USA300) [µM] | Membrane permeation (S. aureus USA300 LAC [7]) | Disruption of 24 h preformed biofilms (words, found previously) [8] | Inhibitory activity at 32 µM [9] | Disruption of preformed biofilms ([6]; biofilms formed for 24, 48 and 72 h, peptide at 8, 16, 32 or 64 μM for 24 h)
1 | GIKEFKRIVQRIKDFLRNLV-NH2 [GI-20] | GI-20 > 17BIPHE2 > GF-17~SK-24 > LL-37 | 32 | 2 | >32 | superior to SK-24 | 12.681 | >32 | antibiofilm effect in a dose-dependent manner | ~ 160 µM | 8 | 30–50% | only worked at 64 μM | dose-dependent manner | 2 to 4 | more powerful |  |  | 
2 | RIVQRIKDFL-NH2 [RI-10] | unable to produce a similar effect | >32 | >32 | >32 | some membrane permeation | 8.831 | >32 |  |  | >32 |  |  |  | >32 | some membrane permeation | neither LL-37 nor RI-10 was able to disrupt | did not show any inhibitory activity | unable to disrupt
